Experimental findings from ChEMBL document CHEMBL4396887, “Five-Membered N-Heterocyclic Scaffolds as Novel Amino Bioisosteres at γ-Aminobutyric Acid (GABA) Type A Receptors and GABA Transporters” (J Med Chem, 2019) are described below.

Series [1] addresses T1, GABA-A receptor; alpha-1/beta-2/gamma-2 (Homo sapiens, UniProt P14867+P47870+P18507).
T1 sequence (P14867 whole entry): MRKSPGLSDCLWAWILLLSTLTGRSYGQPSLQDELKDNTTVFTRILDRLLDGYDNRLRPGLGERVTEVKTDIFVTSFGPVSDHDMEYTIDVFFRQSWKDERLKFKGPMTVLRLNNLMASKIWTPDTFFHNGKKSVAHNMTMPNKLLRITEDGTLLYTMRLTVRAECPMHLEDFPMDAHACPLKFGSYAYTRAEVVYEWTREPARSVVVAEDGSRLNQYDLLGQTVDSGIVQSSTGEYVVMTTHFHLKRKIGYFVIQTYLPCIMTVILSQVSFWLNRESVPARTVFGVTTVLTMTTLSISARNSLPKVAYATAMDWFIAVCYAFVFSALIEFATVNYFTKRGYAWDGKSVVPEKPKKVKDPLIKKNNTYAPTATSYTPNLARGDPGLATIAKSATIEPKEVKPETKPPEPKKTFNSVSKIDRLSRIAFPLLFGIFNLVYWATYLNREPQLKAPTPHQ
T1 sequence (P47870 whole entry): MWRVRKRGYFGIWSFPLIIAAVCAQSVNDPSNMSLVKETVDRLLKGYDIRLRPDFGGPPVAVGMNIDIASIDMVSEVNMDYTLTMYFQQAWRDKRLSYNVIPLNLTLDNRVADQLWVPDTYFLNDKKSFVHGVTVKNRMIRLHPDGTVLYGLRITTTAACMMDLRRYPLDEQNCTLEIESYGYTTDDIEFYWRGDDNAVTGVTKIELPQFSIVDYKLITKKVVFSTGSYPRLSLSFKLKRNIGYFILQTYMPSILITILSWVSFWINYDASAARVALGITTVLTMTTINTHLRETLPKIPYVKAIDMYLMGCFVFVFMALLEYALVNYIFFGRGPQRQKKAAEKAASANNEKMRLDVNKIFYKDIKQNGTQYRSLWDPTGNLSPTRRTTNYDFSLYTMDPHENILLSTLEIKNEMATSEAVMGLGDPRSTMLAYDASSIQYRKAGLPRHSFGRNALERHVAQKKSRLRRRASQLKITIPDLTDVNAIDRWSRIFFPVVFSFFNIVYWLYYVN
T1 sequence (P18507 whole entry): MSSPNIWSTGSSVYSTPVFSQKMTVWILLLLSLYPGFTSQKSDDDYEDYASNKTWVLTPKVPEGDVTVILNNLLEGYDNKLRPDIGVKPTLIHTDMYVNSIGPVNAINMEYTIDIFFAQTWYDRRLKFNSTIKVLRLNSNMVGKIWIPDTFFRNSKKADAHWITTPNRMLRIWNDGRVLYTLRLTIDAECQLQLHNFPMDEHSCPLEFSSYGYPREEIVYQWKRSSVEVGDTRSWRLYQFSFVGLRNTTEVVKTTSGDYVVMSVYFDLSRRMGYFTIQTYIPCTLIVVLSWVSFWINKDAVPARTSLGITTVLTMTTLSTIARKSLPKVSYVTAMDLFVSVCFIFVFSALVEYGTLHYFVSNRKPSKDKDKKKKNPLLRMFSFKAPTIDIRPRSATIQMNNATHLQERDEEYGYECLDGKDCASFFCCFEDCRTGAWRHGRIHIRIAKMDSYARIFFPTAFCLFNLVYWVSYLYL
In words: (§1) Agonist activity at recombinant human GABA-A alpha1beta2gamma2S receptor transiently expressed in human tsA201 cells incubated for 30 mins and measured up to 90 secs by FMP dye based FLIPR membrane potential blue assay. The series is classed as cell-based.

Series [2] deals with T2, Gamma-aminobutyric acid receptor subunit alpha-4/beta-2/gamma-2 (Homo sapiens, UniProt P47870+P18507+P48169). In words: (§2) Agonist activity at recombinant human GABA-A alpha4beta2gamma2S receptor transiently expressed in human tsA201 cells incubated for 30 mins and measured up to 90 secs by FMP dye based FLIPR membrane potential blue assay. The series is classed as cell-based.

For series [3], the target named is Sodium- and chloride-dependent GABA transporter 1 (Homo sapiens, UniProt P30531). The class given is cell-based.
Series [4] deals with T3, GABA-A receptor; alpha-1/beta-2/gamma-2 (Homo sapiens, UniProt P14867+P18507+P47870).
T3 sequence (P14867 whole entry): T1 sequence (P14867 whole entry)
T3 sequence (P47870 whole entry): T1 sequence (P47870 whole entry)
T3 sequence (P18507 whole entry): T1 sequence (P18507 whole entry)
The series is described as §1. The series is classed as cell-based.

In series [5] the target is Gamma-aminobutyric acid receptor subunit alpha-4/beta-2/gamma-2 (Homo sapiens, UniProt P18507+P47870+P48169). The description is as §2. The series is classed as cell-based. To be noted: read-out: EC50.
In series [6] the target is T2, Gamma-aminobutyric acid receptor subunit alpha-4/beta-2/gamma-2. In words: Agonist activity at recombinant human GABA-A alpha4beta2gamma2S receptor transiently expressed in human tsA201 cells assessed as GABA-induced maximum response incubated for 30 mins and measured up to 90 secs by FMP dye based FLIPR membrane potential blue assay relative to GABA. The series is classed as cell-based.

Series [7] is described as follows: Ionization constant, pKa2 of the compound at 1 mM by potentiometric titration assay. The class given is physicochemical.
Series [8] has as its target T2, Gamma-aminobutyric acid receptor subunit alpha-4/beta-2/gamma-2. In words: Agonist activity at recombinant human GABA-A alpha4beta2gamma2S receptor transiently expressed in human tsA201 cells at >= 100 uM incubated for 30 mins and measured up to 90 secs by FMP dye based FLIPR membrane potential blue assay. The series is classed as cell-based.
In series [9] the target is T4, Gamma-aminobutyric acid receptor subunit rho-1 (Homo sapiens, UniProt P24046). In words: Agonist activity at recombinant human GABA-A rho-1 receptor transiently expressed in human tsA201 cells at 300 uM incubated for 30 mins and measured up to 90 secs by FMP dye based FLIPR membrane potential blue assay. The series is classed as cell-based.
The target of series [10] is T4, Gamma-aminobutyric acid receptor subunit rho-1. In words: Antagonist activity at recombinant human GABA-A rho-1 receptor transiently expressed in human tsA201 cells incubated for 30 mins and measured up to 90 secs by FMP dye based FLIPR membrane potential blue assay. The class given is cell-based.
Series [11] addresses T5, GABA-A receptor; alpha-1/beta-2/gamma-2 (Homo sapiens) (UniProt P14867+P47870+P18507). The description is as §1. The series is classed as cell-based.
For series [12], the target named is T2, Gamma-aminobutyric acid receptor subunit alpha-4/beta-2/gamma-2. In words: Agonist activity at recombinant human GABA-A alpha4beta2gamma2S receptor transiently expressed in human tsA201 cells at >= 300 uM incubated for 30 mins and measured up to 90 secs by FMP dye based FLIPR membrane potential blue assay. The class given is cell-based.
Series [13] deals with T5, GABA-A receptor; alpha-1/beta-2/gamma-2 (Homo sapiens). In words: Agonist activity at recombinant human GABA-A alpha1beta2gamma2S receptor transiently expressed in human tsA201 cells at >= 1000 uM incubated for 30 mins and measured up to 90 secs by FMP dye based FLIPR membrane potential blue assay. The series is classed as cell-based.
The target is the same in series [14]. The series is described as follows: Agonist activity at recombinant human GABA-A alpha1beta2gamma2S receptor transiently expressed in human tsA201 cells at >= 300 uM incubated for 30 mins and measured up to 90 secs by FMP dye based FLIPR membrane potential blue assay. The class given is cell-based.
For series [15], the target named is T4, Gamma-aminobutyric acid receptor subunit rho-1. In words: Agonist activity at recombinant human GABA-A rho-1 receptor transiently expressed in human tsA201 cells at >= 100 uM incubated for 30 mins and measured up to 90 secs by FMP dye based FLIPR membrane potential blue assay. The class given is cell-based.
Series [16] is filed under the species Homo sapiens. In words: Agonist activity at recombinant human GABA-A alpha3beta2gamma2S receptor transiently expressed in human tsA201 cells at >= 300 uM incubated for 30 mins and measured up to 90 secs by FMP dye based FLIPR membrane potential blue assay. The class given is cell-based.
Series [17] is filed under the species Homo sapiens.

Activity calls are given as the source filed them. The calls are words filed in the database; no cut-off is given here.

T2 sequence (P48169 whole entry, one chain of several): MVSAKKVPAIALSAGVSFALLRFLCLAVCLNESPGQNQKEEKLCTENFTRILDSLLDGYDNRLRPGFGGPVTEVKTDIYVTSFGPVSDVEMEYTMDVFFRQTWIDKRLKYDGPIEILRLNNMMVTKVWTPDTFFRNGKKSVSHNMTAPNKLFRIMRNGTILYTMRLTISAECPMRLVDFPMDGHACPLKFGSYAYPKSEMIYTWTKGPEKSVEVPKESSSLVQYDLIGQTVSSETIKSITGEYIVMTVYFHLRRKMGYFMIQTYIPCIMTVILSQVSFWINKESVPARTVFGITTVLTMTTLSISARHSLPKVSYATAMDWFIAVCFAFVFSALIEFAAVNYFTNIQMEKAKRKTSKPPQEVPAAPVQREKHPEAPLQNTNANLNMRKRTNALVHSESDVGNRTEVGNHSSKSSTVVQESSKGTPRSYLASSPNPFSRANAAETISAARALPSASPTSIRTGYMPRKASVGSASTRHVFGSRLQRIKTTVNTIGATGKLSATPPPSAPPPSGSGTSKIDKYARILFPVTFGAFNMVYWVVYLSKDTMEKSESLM
Chain of Gamma-aminobutyric acid receptor subunit alpha-4/beta-2/gamma-2 (Homo sapiens, UniProt P18507+P47870+P48169) (P48169 whole entry, one chain of several): as above
Chain of Sodium- and chloride-dependent GABA transporter 1 (P30531 whole entry): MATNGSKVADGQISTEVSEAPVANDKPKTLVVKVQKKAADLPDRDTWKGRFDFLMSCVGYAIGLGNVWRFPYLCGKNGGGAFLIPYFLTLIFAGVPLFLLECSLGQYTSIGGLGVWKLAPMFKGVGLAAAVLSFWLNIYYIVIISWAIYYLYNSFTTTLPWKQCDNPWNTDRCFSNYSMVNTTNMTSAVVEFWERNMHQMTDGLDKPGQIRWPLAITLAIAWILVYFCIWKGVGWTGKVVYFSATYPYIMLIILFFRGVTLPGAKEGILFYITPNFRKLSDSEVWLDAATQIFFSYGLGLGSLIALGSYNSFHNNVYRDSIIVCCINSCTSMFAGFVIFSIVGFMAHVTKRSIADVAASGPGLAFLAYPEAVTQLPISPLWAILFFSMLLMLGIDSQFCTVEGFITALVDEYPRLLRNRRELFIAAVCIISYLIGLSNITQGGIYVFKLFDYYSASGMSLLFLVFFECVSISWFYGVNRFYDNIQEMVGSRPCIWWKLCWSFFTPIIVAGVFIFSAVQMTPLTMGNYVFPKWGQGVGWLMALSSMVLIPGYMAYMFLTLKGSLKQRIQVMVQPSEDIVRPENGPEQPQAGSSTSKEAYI
T4 sequence (P24046 whole entry): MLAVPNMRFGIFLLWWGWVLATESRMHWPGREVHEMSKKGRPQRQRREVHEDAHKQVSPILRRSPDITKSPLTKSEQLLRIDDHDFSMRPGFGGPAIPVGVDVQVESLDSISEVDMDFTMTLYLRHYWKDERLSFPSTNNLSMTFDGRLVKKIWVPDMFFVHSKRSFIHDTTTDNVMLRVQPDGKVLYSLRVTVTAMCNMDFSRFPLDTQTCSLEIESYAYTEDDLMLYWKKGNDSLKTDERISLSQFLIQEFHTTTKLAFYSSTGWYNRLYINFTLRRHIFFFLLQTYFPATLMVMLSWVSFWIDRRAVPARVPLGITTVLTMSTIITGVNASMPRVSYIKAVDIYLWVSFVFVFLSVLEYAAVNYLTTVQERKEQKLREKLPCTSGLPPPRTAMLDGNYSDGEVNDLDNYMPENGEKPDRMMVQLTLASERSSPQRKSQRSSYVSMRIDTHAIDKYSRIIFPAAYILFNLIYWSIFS

In general, EC50 refers to the midpoint of the concentration-response curve. With `CC(C(=O)O)C1CSC(N)=N1` (stereo in doubt; l-10b), the EC50 result in [1] and in series [2] was “Not Active” in each case. Moreover, in [3] (read-out: IC50), the IC50 is above 100 µM.
As a reminder, the pKa is the pH at which an ionisable group is half protonated. Higher therefore signals a group that holds its proton tightly. As to `NC1=NC(CC(=O)O)CS1` (configuration not stated), the figures for the EC50 in series [4] and in [5] were 1.8 µM and 1.3 µM, respectively. Besides, the Rmax in [6] was determined as 93%. The same compound came in with a pKa at 1000 µM in series [7] of 8.62. In addition, the values for the IC50 in [3] (read-out: IC50) and in series [3] (read-out: pIC50 (converted)) were 179 µM and 158 µM, respectively.
On to `C[C@@H](C(=O)O)[C@H]1CSC(N)=N1` (relative stereo), for which the EC50 was 48 µM in series [4] and “Not Active” in [2]. The pEC50 result in [2] is “inactive”. Further, the Rmax entry in series [6] was “inactive”. Further, in series [8], the result was Active. Also, the result in series [9] was inactive. The values for the IC50 in series [10] and in series [3] (read-out: IC50) were 300 µM and above 100 µM, respectively.
As for `O=C(O)C[C@H]1CCNC1`, the figures for the EC50 in [4] and in series [5] were 12 µM and 8.1 µM, respectively. Also, in series [6], the Rmax worked out at 94%. Further, the IC50 in series [3] (read-out: IC50) is 3.6 µM; in [3] (read-out: pIC50 (converted)), 2.51 µM.
As to `C[C@@H]1SC(N)=N[C@@H]1CC(=O)O` (relative stereo), the pEC50 entry in series [11] and in [2] was “inactive” each time. Also, the concentration for a half-maximal effect (EC50) result in [1] and in series [2] was “Not Active” in each case. Also, the Rmax entry in series [6] was “inactive”. Further, the result in series [12] and in series [13] was Active. For the same compound, the outcome in [9] was inactive. Further, the IC50 is 100 µM in series [10] and above 100 µM in series [3] (read-out: IC50).
Turning to `CC(C(=O)O)C1CSC(N)=N1` (stereo in doubt; l-10a), the EC50 in series [4] turned out to be 25 µM; in [5], 26 µM. Also, in [3] (read-out: IC50), the IC50 is above 100 µM.
As for `O=C(O)CC1CNC=N1` (configuration not stated), the half-maximal effective concentration (EC50) in series [4] was determined as 7.6 µM; in [5] it was 7.9 µM. Besides, the Rmax in series [6] is 74%. In [7], the pKa at 1000 µM amounted to 9.63. Besides, the IC50 in series [3] (read-out: IC50) was 71.4 µM.
`C[C@H]1SC(N)=N[C@@H]1CC(=O)O` (relative stereo): the pEC50 entry (in series [11]; in [2]; in the series listed under Homo sapiens [17]) was “inactive” each time. Moreover, the EC50 entry in series [1] and in series [2] was “Not Active” each time. The Rmax result in series [6] is “inactive”. Also, the outcome (in [14]; in series [12]; in [15]; in the series listed under Homo sapiens [16]) was Active. For the same compound, the IC50 in series [3] (read-out: IC50) is above 100 µM.
On to `O=C(O)C[C@@H]1CCNC1`, for which the pEC50 entry (in [11]; in series [2]; in the series filed under Homo sapiens [17]) was “inactive” in each case. The EC50 entry in series [1] and in series [2] was “Not Active” in each case. Moreover, the Rmax entry in series [6] is “inactive”. Also, the result in series [14], in [12] and in series [15] was Active. Further, the IC50 was 3.9 µM in series [3] (read-out: IC50) and 3.16 µM in series [3] (read-out: pIC50 (converted)).
Take `NC1=NC(CC(=O)O)CN1` (configuration not stated): the EC50 in series [4] is 11 µM; in [5] it was 14 µM. Besides, the Rmax in series [6] worked out at 81%. Moreover, in series [7], the pKa at 1000 µM was 10.1. Further, the IC50 in series [3] (read-out: IC50) was 96.9 µM.
On to `C[C@@H](C(=O)O)[C@@H]1CSC(N)=N1` (relative stereo), for which the EC50 in series [4] turned out to be 9.7 µM. Besides, in series [2], the EC50 result is “Not Active” and the pEC50 entry is “inactive”. In addition, the Rmax entry in series [6] was “inactive”. The IC50 in [3] (read-out: IC50) is above 100 µM.
